Laboratory results: patent US12629446B2, “Vascular embolic system” (3-D Matrix, Ltd., priority 2012, dated 2026)

Design: species or system Yorkshire cross swine
Conditions: in vivo
Protocol: PuraMatrix™, a peptide solution comprising Ac-RADARADARADARADA-NH2 (Ac-Arg-Ala-Asp-Ala-Arg-Ala-Asp-Ala-Arg-Ala-Asp-Ala-Arg-Ala-Asp-Ala-NH2) (SEQ ID NO: 58) in water was used as an embolic agent in a porcine model through angiography, gross necropsy assessment, and histopathology assessment. One female Yorkshire cross swine was tested. The weight of the swine at the time of testing was 46.5 kg. Feed and water were provided per standard operating procedures. There were no contaminants in the food or water that were expected to interfere with the conduct or results of the study. The swine was acquired from a test facility approved animal supplier. The Swine participated in an incoming physical exam, and after a period of acclimation was again examined. The swine was fasted a minimum of 12 hours prior to the procedures. The animals were sedated and anesthetized by an intramuscular or subcutaneous injection of Telazol (2-10 mg/kg) and Xylazine (0.5=5.0 mg/kg). Propofol (to effect) was given to aid in sedation. An endotracheal tube was used to ensure proper ventilation and the animals were maintained under general anesthesia with inhalant isofluorante (0.1 to 5.0%). Heparin (50-300 units/kg, IV) was administered throughout the procedure.
On the day of testing, the swine was 2 months, 25 days old. The swine was sedated and prepared for surgery. […]

For Ac-RADARADARADARADA-NH2 [PuraMatrix™], the “adverse events throughout the testing” value was “no adverse events”.
